In US5362738A, “Tricyclic pyridone derivatives” (Hoffmann-La Roche Inc., priority 1990, dated 1994) one finds LD50 and ED50 data, which are given here for nine compounds.

Data set [1] in a line: acute toxicity (LD50), single oral administration to mice. Conditions: mouse, in vivo, p.o. The protocol:
(§1) In this animal experiment the compound under investigation is administered orally to mice and 30 minutes later there are administered intraperitoneally 120 mg/kg of pentetrazole, which causes emprosthotonus and tonic stretchings of the fore and/or hind limbs in unprotected animals 1-4 minutes after the injection. 10 experimental animals are used per dosage of test substance. After counting the protected experimental animals the ED50 is determined according to the Probit method. The ED50 is that dosage which protects 50% of the experimental animals from the spasmodic seizures caused by pentetrazole. The results which have been obtained with representative members of the class of compound defined by formula I in the experiment described previously are compiled in the following Table. Moreover, the Table contains data concerning the acute toxicity (LD50) of some of these compounds in mg/kg in the case of single oral administration to mice.

Data set [2] relates to spasmodic seizures caused by pentetrazole. The data set can be described thus: antipentetrazole test (oral, mice). Conditions: Mus musculus, 0.5 h, p.o., 120 mg/kg pentetrazole i.p. 30 minutes later, 10 animals per dosage, Probit method, dosage protecting 50% of animals. In kind it is in vivo. The protocol:
As mentioned above, the compounds of formula I have valuable pharmacological properties. In particular, they display pronounced muscle relaxant, sedative-hypnotic, anticonvulsive and/or anxiolytic properties and have a low toxicity.
as §1

With `CN1CCN(C(=O)c2cc(-c3ccccc3)c(=O)n3c2-c2ccccc2C3)CC1.Cl` [H, 4-Me-piperazino, --CH=CH--CH=CH--, 1-[(4,6-dihydro-4-oxo-3-phenylpyrido[2,1-a]isoindol-1-yl)carbonyl]-4-methyl-piperazine hydrochloride], the LD50 – broadly, the dose expected to kill half of the subjects tested – in data set [1] stood at 312 mg/kg. Moreover, the ED50 (usually the dose at which the effect has come halfway, by size or by number of responders) in data set [2] turned out to be 5.7 mg/kg.

On to `CO[C@H]1CCN(C(=O)c2cc(-c3ccccc3)c(=O)n3c2-c2sccc2C3)C1` [H, 3-MeO-pyrrolidino, --S--CH=CH--, (S)-1-[(4,6-dihydro-6-oxo-7-phenylthieno[2',3':3,4]pyrrolo[1,2-a]-pyridin-9-yl)carbonyl]-3-methoxypyrrolidine], for which the LD50 in data set [1] was determined as 375 mg/kg. The same compound gave an ED50 in data set [2] of 1.7 mg/kg.

In data set [2], `COC1CN(C(=O)c2cc(-c3ccccc3)c(=O)n3c2-c2c(Cl)cccc2C3)C1` [H, 3-MeO-azetidino, --CCl=CH--CH=CH--, 1-[(10-chloro-4,6-dihydro-4-oxo-3-phenylpyrido[2,1-a]isoindol-1-yl)carbonyl]-3-methoxyazetidine] returned a median effective dose (ED50) of 2.2 mg/kg.

`CN(C)C(=O)c1cc(-c2ccccc2)c(=O)n2c1-c1ccccc1C2` [H, Me2 N--, --CH=CH--CH=CH--, N,N-dimethyl-4,6-dihydro-4-oxo-3-phenylpyrido[2,1-a]isoindole-1-carboxamide] displayed an LD50 in data set [1] of 375 mg/kg. In data set [2], this compound came in with an ED50 of 0.73 mg/kg.

In turn, `COC1CN(C(=O)c2cc(-c3ccccc3)c(=O)n3c2-c2sccc2C3)C1` [H, 3-MeO-azetidino, --S--CH=CH--, 1-[(4,6-dihydro-6-oxo-7-phenylthieno[2',3':3,4]pyrrolo[1,2-a]pyridin-9-yl)-carbonyl]-3-methoxyazetidine] returned an LD50 in data set [1] of 2500 mg/kg. In data set [2], this compound returned an ED50 of 2.1 mg/kg.

`O=C(c1cc(-c2ccccc2)c(=O)n2c1-c1sccc1C2)N1CCOCC1` [H, Morpholino, --S--CH=CH--, 4-[(4,6-dihydro-6-oxo-7-phenylthieno[2',3':3,4]pyrrolo[1,2-a]pyridin-9-yl)carbonyl]-morpholine] gave an LD50 in data set [1] of 5000 mg/kg. For the same compound, the ED50 in data set [2] came to 1.32 mg/kg.

For `COC1CN(C(=O)c2cc(-c3ccccc3)c(=O)n3c2-c2ccccc2C3)C1` [H, 3-MeO-azetidino, --CH=CH--CH=CH--, 1-[(4,6-dihydro-4-oxo-3-phenylpyrido[2,1-a]isoindol-1-yl)carbon-yl]-3-methoxyazetidine], in data set [2], the ED50 was 0.39 mg/kg.

`COC[C@H]1CCCN1C(=O)c1cc(-c2ccccc2)c(=O)n2c1-c1ccccc1C2` [H, (R)-2-MeOCH2 --Py--, --CH=CH--CH=CH--, (R)-1-[[4,6-dihydro-4-oxo-3-phenylpyrido[2,1-a]isoindol-1-yl]carbonyl]-2-(methoxymethyl)pyrrolidine]: the LD50 in data set [1] worked out at 1500 mg/kg. The compound also had an ED50 in data set [2] of 2.3 mg/kg.

In the case of `COC[C@H]1CCCN1C(=O)c1cc(-c2ccccc2)c(=O)n2c1-c1sccc1C2` [H, (R)-2-MeOCH2 --Py--, --S--CH=CH--, (R)-1-[(4,6-dihydro-6-oxo-7-phenylthieno[2',3':3,4]pyrrolo[1,2-a]pyridin-9-yl)carbonyl]-2-(methoxymethyl)pyrrolidine], the LD50 in data set [1] amounted to 625 mg/kg. The compound further came in with an ED50 in data set [2] of 0.76 mg/kg.
